Laboratory results reported in the CheMixHub viscosity set.

Assay: xn = mol fraction of the nth substance listed

CCCCNCCCC + CCCCOCCO
viscosity [mPa·s], 100 kPa
Details | 298.15 K | 303.15 K | 308.15 K
x2 = 0.0501 | 0.94 | 0.85 | 0.8
x2 = 0.1169 | 1.1 | 1.01 | 0.93
x2 = 0.1502 | 1.19 | 1.07 | 1
x2 = 0.2006 | 1.34 | 1.17 | 1.08
x2 = 0.3001 | 1.58 | 1.35 | 1.25
x2 = 0.4001 | 1.82 | 1.55 | 1.43
x2 = 0.5 | 2.14 | 1.83 | 1.63
x2 = 0.5999 | 2.42 | 2.12 | 1.84
x2 = 0.6998 | 2.7 | 2.33 | 2.09
x2 = 0.8 | 2.97 | 2.5 | 2.28
x2 = 0.8965 | 3.1 | 2.61 | 2.38
x2 = 0.95 | 2.97 | 2.56 | 2.32

CCCCNCCCC + CCCO
viscosity [mPa·s], 101.33 kPa
Details | x1 = 0.0988 | x1 = 0.1893 | x1 = 0.3012 | x1 = 0.4041 | x1 = 0.4964 | x1 = 0.59 | x1 = 0.693 | x1 = 0.7809 | x1 = 0.8947
303.15 K | 1.681 | 1.564 | 1.404 | 1.276 | 1.176 | 1.084 | 0.9942 | 0.9209 | 0.832
313.15 K | 1.309 | 1.228 | 1.123 | 1.03 | 0.9494 | 0.8887 | 0.8255 | 0.7761 | 0.7157

CCCCNCCCC + CCO
viscosity [mPa·s], 101.33 kPa
Details | x1 = 0.1169 | x1 = 0.2094 | x1 = 0.3171 | x1 = 0.3921 | x1 = 0.4922 | x1 = 0.6159 | x1 = 0.712 | x1 = 0.7802 | x1 = 0.8995
303.15 K | 1.107 | 1.126 | 1.099 | 1.065 | 1.008 | 0.9427 | 0.8965 | 0.8625 | 0.8089
313.15 K | 0.9037 | 0.9066 | 0.8803 | 0.8493 | 0.8109 | 0.766 | 0.7426 | 0.7261 | 0.6965

CCOC(=O)C(=O)OCC + CCO
viscosity [mPa·s]
Details | 303.15 K | 313.15 K | 323.15 K
101 kPa, x1 = 0.1003 | 0.935 | 0.799 | 0.667
101 kPa, x1 = 0.2024 | 0.948 | 0.809 | 0.68
101 kPa, x1 = 0.3028 | 0.988 | 0.836 | 0.711
101 kPa, x1 = 0.4015 | 1.045 | 0.879 | 0.751
101 kPa, x1 = 0.4917 | 1.108 | 0.93 | 0.793
101 kPa, x1 = 0.5907 | 1.177 | 0.99 | 0.845
101 kPa, x1 = 0.6942 | 1.259 | 1.063 | 0.909
101 kPa, x1 = 0.8049 | 1.362 | 1.151 | 0.987
101 kPa, x1 = 0.903 | 1.484 | 1.233 | 1.061
101.33 kPa, x1 = 0.1001 | 0.948 | – | –
101.33 kPa, x1 = 0.2004 | 0.968 | – | –
101.33 kPa, x1 = 0.2897 | 1.009 | – | –
101.33 kPa, x1 = 0.398 | 1.069 | – | –
101.33 kPa, x1 = 0.5098 | 1.146 | – | –
101.33 kPa, x1 = 0.5982 | 1.213 | – | –
101.33 kPa, x1 = 0.6828 | 1.283 | – | –
101.33 kPa, x1 = 0.77 | 1.371 | – | –
101.33 kPa, x1 = 0.8931 | 1.515 | – | –

COCCO + CCO
viscosity [mPa·s], 101 kPa
Details | x1 = 0.06304 | x1 = 0.133 | x1 = 0.206 | x1 = 0.2876 | x1 = 0.3771 | x1 = 0.476 | x1 = 0.5856 | x1 = 0.7078 | x1 = 0.8449
298.15 K | 1.051 | 1.024 | 1.019 | 1.031 | 1.053 | 1.084 | 1.173 | 1.286 | 1.415
308.15 K | 0.8342 | 0.8445 | 0.8576 | 0.8812 | 0.9063 | 0.9409 | 1.003 | 1.07 | 1.105
318.15 K | 0.7622 | 0.7704 | 0.773 | 0.8002 | 0.847 | 0.868 | 0.911 | 0.923 | 0.9633

COCCO + CCOC(=O)OCC
298.15 K, 101.33 kPa
Details | viscosity [mPa·s]
x1 = 0.0272 | 0.752
x1 = 0.0413 | 0.754
x1 = 0.0549 | 0.755
x1 = 0.0747 | 0.755
x1 = 0.0907 | 0.759
x1 = 0.1297 | 0.765
x1 = 0.1593 | 0.772
x1 = 0.224 | 0.791
x1 = 0.2925 | 0.814
x1 = 0.3392 | 0.835
x1 = 0.4073 | 0.866
x1 = 0.4273 | 0.877
x1 = 0.456 | 0.892
x1 = 0.4715 | 0.902
x1 = 0.5283 | 0.939
x1 = 0.5966 | 0.99
x1 = 0.6278 | 1.015
x1 = 0.6808 | 1.062
x1 = 0.7227 | 1.106
x1 = 0.7552 | 1.142
x1 = 0.8011 | 1.197
x1 = 0.8428 | 1.253
x1 = 0.8647 | 1.285
x1 = 0.8826 | 1.313
x1 = 0.9127 | 1.359
x1 = 0.9464 | 1.418
x1 = 0.9674 | 1.455
x2 = 0.0047 | 1.512
x2 = 0.0149 | 1.491

C1CCNCC1 + CCOC(C)=O
303.15 K, 101 kPa
Details | viscosity [mPa·s]
x1 = 0.1 | 0.45
x1 = 0.2 | 0.49
x1 = 0.3 | 0.53
x1 = 0.4 | 0.565
x1 = 0.5 | 0.625
x1 = 0.6 | 0.71
x1 = 0.7 | 0.795
x1 = 0.8 | 0.895
x1 = 0.9 | 1.04

CCOC(=O)C(=O)OCC + CCOC(C)=O
viscosity [mPa·s], 101 kPa
Details | x1 = 0.0949 | x1 = 0.196 | x1 = 0.3019 | x1 = 0.4065 | x1 = 0.5006 | x1 = 0.6036 | x1 = 0.6954 | x1 = 0.7993 | x1 = 0.8948
303.15 K | 0.458 | 0.535 | 0.636 | 0.736 | 0.844 | 0.978 | 1.107 | 1.265 | 1.428
313.15 K | 0.423 | 0.486 | 0.56 | 0.647 | 0.734 | 0.847 | 0.95 | 1.081 | 1.203
323.15 K | 0.381 | 0.436 | 0.499 | 0.571 | 0.646 | 0.74 | 0.825 | 0.928 | 1.028

COCCO + CCOC(C)=O
viscosity [mPa·s], 101 kPa
Details | x1 = 0.0974 | x1 = 0.1945 | x1 = 0.2964 | x1 = 0.3997 | x1 = 0.4973 | x1 = 0.5922 | x1 = 0.6956 | x1 = 0.8008 | x1 = 0.9012
298.15 K | 0.47 | 0.514 | 0.572 | 0.644 | 0.736 | 0.838 | 0.992 | 1.19 | 1.421
303.15 K | 0.444 | 0.484 | 0.536 | 0.601 | 0.683 | 0.775 | 0.912 | 1.086 | 1.286
308.15 K | 0.42 | 0.456 | 0.514 | 0.564 | 0.636 | 0.719 | 0.84 | 0.994 | 1.173

CCCC[N+](C)(CCCC)CCCC.N#C[N-]C#N + CC[n+]1ccn(C)c1.N#C[N-]C#N
Details | viscosity [mPa·s]
323.15 K, 101 kPa, x2 = 0.2114 | 42.05

CC(=O)OC(C)C + CCc1ccccc1
viscosity [mPa·s], 101 kPa
Details | x1 = 0.1056 | x1 = 0.2037 | x1 = 0.3116 | x1 = 0.4048 | x1 = 0.5112 | x1 = 0.6089 | x1 = 0.7156 | x1 = 0.811 | x1 = 0.9403
303.15 K | 0.582 | 0.567 | 0.551 | 0.538 | 0.523 | 0.51 | 0.496 | 0.484 | 0.467
313.15 K | 0.523 | 0.509 | 0.494 | 0.482 | 0.469 | 0.457 | 0.445 | 0.434 | 0.42

CC(=O)OCC(C)C + CCc1ccccc1
viscosity [mPa·s], 101 kPa
Details | x1 = 0.0948 | x1 = 0.1767 | x1 = 0.2601 | x1 = 0.3586 | x1 = 0.4735 | x1 = 0.5727 | x1 = 0.7004 | x1 = 0.7989 | x1 = 0.8805 | x1 = 0.9463
303.15 K | 0.596 | 0.597 | 0.599 | 0.602 | 0.606 | 0.61 | 0.616 | 0.623 | 0.63 | 0.635
313.15 K | 0.527 | 0.528 | 0.529 | 0.53 | 0.534 | 0.539 | 0.545 | 0.552 | 0.559 | 0.569

[Cl-].[Li+] + CN1CCCC1=O
298.15 K, 101 kPa
Details | viscosity [mPa·s]
x1 = 0.03756 | 2.607
x1 = 0.03819 | 2.63
x1 = 0.04156 | 2.626
x1 = 0.07132 | 3.558
x1 = 0.07175 | 3.558
x1 = 0.07229 | 3.56
x1 = 0.1038 | 4.959
x1 = 0.1042 | 4.958
x1 = 0.1044 | 4.958

CCCC(C)O (centres undefined) + CN(C)C=O
viscosity [mPa·s], 101 kPa
Details | x2 = 0.109 | x2 = 0.1534 | x2 = 0.2404 | x2 = 0.345 | x2 = 0.4412 | x2 = 0.5603 | x2 = 0.6548 | x2 = 0.7436 | x2 = 0.8432 | x2 = 0.9376
298.15 K | 2.69 | 2.51 | 2.26 | 2.01 | 1.82 | 1.59 | 1.41 | 1.25 | 1.07 | 0.91
303.15 K | 2.23 | 2.05 | 1.84 | 1.65 | 1.51 | 1.33 | 1.21 | 1.08 | 0.96 | 0.84
308.15 K | 1.83 | 1.68 | 1.49 | 1.35 | 1.24 | 1.13 | 1.04 | 0.95 | 0.86 | 0.78
313.15 K | 1.54 | 1.4 | 1.24 | 1.13 | 1.05 | 0.97 | 0.91 | 0.86 | 0.79 | 0.72

CCCCNCCCC + CNC(C)=O
308.15 K, 101 kPa
Details | viscosity [mPa·s]
x1 = 0.0121 | 3.267
x2 = 0.0611 | 0.7366
x2 = 0.2864 | 1.116
x2 = 0.4546 | 1.522
x2 = 0.5799 | 1.89
x2 = 0.6904 | 2.25
x2 = 0.7866 | 2.584
x2 = 0.8542 | 2.828
x2 = 0.9262 | 3.06
